The test system of assay [1] is LC3B-II in PBMCs. Kind of assay: Autophagic flux in PBMCs by lysosomal inhibition in whole blood, LC3B western blot. The assay is classed as cell-based, human. How it is done:
Blood was collected in lithium heparin (Greiner Bio-One, vacuette tube 9 ml lithium heparin, 455084), or EDTA (Greiner Bio-One, vacuette tube 9 ml K3EDTA, 455036) blood collection tubes (6-9 ml). Unless otherwise stated, blood samples were split into two (2×3 ml) and pipetted into 10 ml conical centrifuge tubes. One of the blood samples was treated with a final concentration of 150 μM of chloroquine (CQ, chloroquine diphosphate, Sigma Aldrich, C6628) (9 μl of 50 mM for a final volume of 3 ml of blood). Blood was mixed gently by inverting both tubes 3-4 times. Both tubes (+CQ and −CQ) were incubated at 37° C. for 1 hour with rotation (10 revolutions per minute, Thermo Scientific Tube Revolver, 88881002).
After blood was incubated for 1 hour at 37° C., blood tubes were kept on ice to stop enzyme activity and vesicular trafficking. PBMCs were then isolated using standard procedures. To each tube, 3 ml of cold DPBS (Dulbecco's Phosphate-Buffered Saline, GIBCO) was added to 3 ml of blood (1:1) and samples were mixed by gently inverting tubes 3-4 times. Four ml of Lymphoprep (Stemcell Technologies, 07811) was carefully underlayed beneath the blood/DPBS mixture using a 10 mL syringe and a canula (sterile). This was repeated for both blood tubes (containing blood incubated without and with CQ). Tubes containing blood/DPBS underlayed with lymphoprep were centrifuged for 30 min at 800 g, with brake off at 4° C.
PBMCs were carefully aspirated with a 1 mL pipette and dispensed into a 10 mL conical centrifuge tube (approximately 2 ml volume containing PBMCs). PBMCs were then diluted with cold DPBS to a final volume of 5 ml. PBMCs and DPBS were mixed gently by inverting tubes 3-4 times. PBMCs were then pelleted by centrifugation at 600 g for 10 min at 4° C. (with brake). The supernatant was discarded.
PBMCs were resuspended with 1 ml of red blood cell lysis buffer (1×, BD Biosciences, 555899) and were mixed by gently pipetting. PBMCs were left on ice for 2 minutes, after which they were pelleted by centrifugation at 600 g for 5 min at 4° C. The supernatant was discarded and PBMCs were washed by resuspension in 5 ml of cold DPBS. PBMCs were pelleted again by centrifugation at 600 g for 5 min at 4° C. The supernatant was discarded and the cells were again resuspended in 1 ml of cold DPBS and this suspension was transferred to a 1.5 ml microcentrifuge tube. This tube was centrifuged at 2,000 g for 10 min at 4° C. The supernatant was discarded and the pellet containing PBMCs was frozen on dry ice and stored at −80° C. until biochemical analyses.
PBMC pellets were resuspended in a lysis buffer containing protease and phosphatase inhibitors (10 mM Tris pH 7.0, 1 mM EDTA, 0.5 mM EGTA, 1% Triton X-100, 0.1% sodium deoxycholate, 0.1% SDS, 140 mM NaCl, 2.5 mM sodium pyrophosphate, 1 mM sodium orthovanadate, 1 mM β-glycerophosphate (pH 7.4) protease inhibitor cocktail Roche (1×). Cell suspensions were then sonicated on ice 2×20 sec. Cell lysates were centrifuged at 2,000 g for 10 min at 4° C. and the supernatant collected.
Total protein was measured using a micro BCA protein assay kit [Thermo Fisher Scientific 23235]. Western blot analysis was performed using 10 μg of total protein of each of the homogenates that were electrophoresed at 130 V for 1 hour through 4-12% Bis-Tris Plus SDS-PAGE gels (Bolt™, Invitrogen, Thermofisher Scientific). The gels were transferred to a methanol-activated PVDF membrane at 35 V for 70 min. […]
Background: A western blot detects proteins with antibodies after separation by electrophoresis.

Assay [2] deals with LC3B-II in PBMCs and PMNs. Particulars: 150 μM chloroquine, one-hour, isolated PBMCs and PMNs in RPMI, N=3. How it is done:
(§1) The supernatant was discarded.
as §1
(§2) This tube was centrifuged at 2,000 g for 10 min at 4° C.
(§3) The gels were transferred to a methanol-activated PVDF membrane at 35 V for 70 min.

Assay [3] concerns LC3A in PBMCs. Kind of assay: Whole blood incubation, LC3A western blot in PBMCs. The assay is classed as cell-based, human. Particulars: chloroquine 0-200 μM in whole blood, 1 h at 37° C., four subjects. On the procedure: (§4) Blood was mixed gently by inverting both tubes 3-4 times.
(§5) (with brake). The supernatant was discarded.
as §2, §3
(§6) The membranes were incubated overnight at 4° C. with primary antibodies diluted in block solution on a tube roller.

Assay [4] has as its system SQSTM1/P62 in PBMCs. Description: Primary culture of PBMCs with or without chloroquine, SQSTM1/P62 western blot. The assay is classed as cell-based, human. To be noted: 150 μM chloroquine, one-hour, isolated PBMCs in RPMI, N=3. On the procedure:
as §1
Images were analyzed using ImageJ software.
These populations were verified by flow cytometry (FIG. 5B).

Assay [5] concerns P62 in PBMCs. Description: Whole blood incubation, P62 western blot in PBMCs. To be noted: chloroquine 0-200 μM in whole blood, 1 h at 37° C., four subjects. The assay is classed as cell-based, human. How it is done:
as §4, §5, §2, §3, §6

Entries after “also recorded” stand apart in the source; their conditions may differ.

For `CO/C1=C\C(C)=C\[C@@H](C)[C@@H](O)[C@@H](C)C/C(C)=C/C=C/[C@H](OC)[C@@H]([C@@H](C)[C@@H](O)[C@H](C)[C@@]2(O)C[C@@H](O)[C@H](C)[C@@H](C(C)C)O2)OC1=O` [Bafilomycin, bafilomycin A1], in assay [1] (whole blood from four individuals, one hour at 37° C., ethanol vehicle), the “LC3BII cargo in PBMCs” value is “increased LC3BII cargo”.
As to `O=C([O-])CN(CCN(CC(=O)[O-])CC(=O)O)CC(=O)[O-].[K+].[K+].[K+]` [EDTA], in assay [1] (EDTA tubes compared with lithium-heparin tubes, three subjects), the “LC3B-II signal in no-chloroquine samples (basal state)” value is reported as “lower”.
In the case of `CCN(CC)CCCC(C)Nc1ccnc2cc(Cl)ccc12` (stereo not drawn) [chloroquine], the “LC3B-II level (LC3B-II degradation inhibited)” value in assay [2] was “increase in LC3B-II”. The “LC3A response to chloroquine treatment” value in assay [3] is recorded as “not clearly responding”. Also, the “P62 level after chloroquine treatment” value in assay [4] was “did not change”. Moreover, in assay [5], the P62 protein abundance result was “increased protein abundance with chloroquine treatment was observed in three out of four subjects”. The “LC3BII accumulation over time” value in assay [1] (150 μM chloroquine in whole blood, 0-120 minutes of incubation) is “near-linear increase in LC3BII accumulation”. Also, in assay [1] (chloroquine 0-200 μM in whole blood, 1 h at 37° C., four subjects), the “LC3B-II response to chloroquine titration (ΔLC3BII, measure of autophagic flux)” value is “robust directly proportional increase in response to increasing chloroquine concentration in whole blood up until 150 μM; also recorded: robust, directly proportional increase in response to increasing chloroquine concentration in whole blood up to 150 μM, after which a ceiling effect was observed”.
As to lithium heparin [lithium-heparin], in assay [1] (lithium-heparin compared with EDTA tubes, 150 μM chloroquine one-hour at 37° C., three subjects), the “autophagic flux (ΔLC3B-II) by anti-coagulant of the collection tube” value is on record as “greater”.
